Experimental data reported in US20260224554A1, “OBEFAZIMOD FOR TREATMENT OF ULCERATIVE COLITIS” (ABIVAX, priority 2023, published 2026).

Tested on: subjects with Moderate to Severe Active Ulcerative Colitis
Experiment: Follow-up Phase II open-label long-term study of ABX464 25 mg QD (ABX464-108), interim analysis
Assay type: in vivo, human
Experimental: • The primary objective of the study is to evaluate the long-term safety of ABX464 given at 25 mg once daily in subjects with Moderate to Severe Active Ulcerative Colitis • Number of Adverse Events (AEs) in ABX464 treated subjects
The secondary objectives are: • To evaluate the long-term effect of ABX464 on clinical remission; • Percentage of subjects reaching clinical remission at yearly visits. • To evaluate the long-term effect of ABX464 on endoscopic remission; • Percentage of subjects reaching endoscopic remission at yearly visits. • To evaluate the long-term effect of ABX464 on clinical response; • Percentage of subjects reaching clinical response at yearly visits. • To evaluate the long-term effect of ABX464 on endoscopic improvement; • Percentage of subjects reaching endoscopic improvement at yearly visits. • To evaluate the long-term effect of ABX464 on inflammatory markers (C-reactive protein (CRP), calprotectin); • The change from Baseline in CRP and fecal calprotectin levels. • To evaluate the safety profile of ABX464; • Number and rate of all AEs and causally-related AEs, all Serious Adverse Events (SAEs) and causally-related SAEs, all AEs of Special Interest (AESIs) and causally-related AESIs, classified by severity; • Incidence of AEs leading to investigational medicinal product discontinuation; • The number of clinically-significant laboratory abnormalities. • To evaluate the effect of ABX464 on miR-124 expression in total blood at every timepoint defined in the schedule of assessment. • Change relative to baseline in miRNA-124 expression in total blood at every defined timepoint.
For the purpose of the study, the following definitions will be applied: • Clinical remission based on the Mayo Scoring system, is defined as stool frequency subscore=0 or 1 and rectal bleeding subscore=0 and endoscopy subscore=0 or 1 (modified to exclude friability). • Clinical Response is defined as a reduction from baseline in modified Mayo Score of at least 2 points and greater than or equal to 30 percent from baseline with an accompanying decrease in rectal bleeding sub-score of greater than or equal to 1 point or absolute rectal bleeding sub-score of less than or equal to 1 point. • Endoscopic remission defined as a Mayo endoscopic sub score of 0. • Endoscopic improvement is defined as a Mayo endoscopic sub score of ≤1 (excluding friability).
This study is an open-label study aiming at evaluating the long-term safety and the efficacy profile of ABX464 given once a day (QD) at 25 mg in subjects who have been previously enrolled in the ABX464-102 or ABX464-104 studies (OLE and maintenance studies) and who are willing to continue their treatment.
All subjects will receive ABX464 given at 25 mg QD.
Subjects will be treated with ABX464 for a maximum period of 54 months. Subjects will be followed up quarterly. After the treatment period, subjects will be followed for 4 additional weeks for safety purposes.
A subject will be eligible to participate in this study if ALL the following criteria are met: • 1. Subjects who previously completed the ABX464-102 or ABX464-104 clinical studies; • 2. Subjects should be in endoscopic improvement with a rectal bleeding sub-score=0 point at the end of treatment period in the previous study (ABX464-102 or ABX464-104). Endoscopic improvement is defined as: a Mayo endoscopic sub score of ≤1; • 3. Subjects able and willing to comply with study visits and procedures; • 4. […]

**Q.** With `FC(F)(F)Oc1ccc(Nc2ccc3cccc(Cl)c3n2)cc1` [Obefazimod, 8-chloro-N-[4-(trifluoromethoxy)phenyl]quinolin-2-amine] as the compound, how does the “Durability of efficacy (MMS evaluation)” value (25 mg QD in patients who achieved endoscopic improvement after 2-4 years of exposure to 50 mg) read?
**A.** The value was “continues to have durable efficacy”.

**Q.** What about the “Proportion of patients with Fecal Calprotectin <250 microgm/gm” value (63 patients who completed 48-week treatment with 25 mg QD) of the same compound?
**A.** The value was 93%.

**Q.** And the “Disease control Rate (Stable+improved MMS)” value (63 patients who completed 48-week treatment with 25 mg QD, after 2-4 years of 50 mg in ABX464-102/-104)?
**A.** The value was 84.1%.

**Q.** And the New safety signals (UC patients treated for up to 5 years)?
**A.** Its New safety signals is “no new safety signals”.

**Q.** And the “Patients withdrawn due to AE” value (of 74 patients analyzed, 48-week treatment with 25 mg QD)?
**A.** Its value is 2 patients.
